Measured values: patent US12077503B2, “Substituted cyclic amides and their use as herbicides” (FMC CORPORATION, priority 2015, dated 2024)

Experiments:
Assay type in all cases: in vivo
[1] = system: redroot pigweed (Amaranthus retroflexus); experiment: Test G Pre-Emergence Protocol; details: Amaranthus retroflexus, pre-emergence, 312 h, evaluated after 13 days
Outline: (§1)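 One day after sowing, pots are treated with a spray of test compound formulated in acetone/water 50:50 plus 0.5% Tween 20, giving 15.625, 62.5 or 250 g/ha. Evaluation on a 0–100 damage scale follows 13 days of glasshouse growth.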

[2] = system: ivy-leaved morning glory (Ipomoea hederacea); experiment: Test G Pre-Emergence Protocol; details: Ipomoea, pre-emergence, 312 h, evaluated after 13 days
Outline: as §1

[3] = system: barnyardgrass (Echinochloa crus-galli); experiment: Test G Pre-Emergence Protocol; details: Echinochloa crus-galli, pre-emergence, 312 h, evaluated after 13 days
Outline: as §1

[4] = system: velvetleaf (Abutilon theophrasti); experiment: Test G Pre-Emergence Protocol; details: Abutilon theophrasti, pre-emergence, 312 h, evaluated after 13 days
Outline: as §1

[5] = system: giant foxtail (Setaria faberi); experiment: Test G Pre-Emergence Protocol; details: Setaria faberi, pre-emergence, 312 h, evaluated after 13 days
Outline: as §1

corn (Zea mays) [6] = experiment: Test G Pre-Emergence Protocol; details: Zea mays, pre-emergence, 312 h, evaluated after 13 days
Outline: as §1

[7] = system: redroot pigweed (Amaranthus retroflexus); experiment: Test G Post-Emergence Protocol; details: Amaranthus retroflexus, post-emergence, 312 h
Outline: (§2)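 Values are percent visual injury at 13 days after treatment (0 none, 100 total). Treatment was a post-emergence spray at 15.625, 62.5 or 250 g/ha on 8-day-old pot plants kept at 24/16 °C.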

[8] = system: ivy-leaved morning glory (Ipomoea hederacea); experiment: Test G Post-Emergence Protocol; details: Ipomoea, post-emergence, 312 h
Outline: as §2

[9] = system: barnyardgrass (Echinochloa crus-galli); experiment: Test G Post-Emergence Protocol; details: Echinochloa crus-galli, post-emergence, 312 h
Outline: as §2

[10] = system: velvetleaf (Abutilon theophrasti); experiment: Test G Post-Emergence Protocol; details: Abutilon theophrasti, post-emergence, 312 h
Outline: as §2

[11] = system: giant foxtail (Setaria faberi); experiment: Test G Post-Emergence Protocol; details: Setaria faberi, post-emergence, 312 h
Outline: as §2

corn (Zea mays) [12] = experiment: Test G Post-Emergence Protocol; details: Zea mays, post-emergence, 312 h
Outline: as §2

CN1C[C@@H](c2ccc(C(F)(F)F)cc2)[C@H](C(=O)Nc2ccc(C#N)cc2Cl)C1=O (racemic) [Compound 1620]
0%: pest or weed control at 15.625 g/ha ([1]; 15.625 g ai/ha, read-out: Pigweed, Redroot damage rating (100=total damage to plant; 0=no damage to plant)) | pest or weed control at 62.5 g/ha ([1]; 62.5 g ai/ha, 100=total damage to plant, 0=no damage to plant, read-out: plant damage rating, Pigweed, Redroot) | pest or weed control at 250 g/ha ([1]; 250 g ai/ha, read-out: Pigweed, Redroot damage rating (100=total damage to plant; 0=no damage to plant)) | pest or weed control at 15.625 g/ha ([2]; 15.625 g ai/ha, read-out: Morning-glory, Ivy-leaved damage rating (100=total damage to plant; 0=no damage to plant)) | pest or weed control at 62.5 g/ha ([2]; 62.5 g ai/ha, 100=total damage to plant, 0=no damage to plant, read-out: plant damage rating, Morningglory, Ivy-leaved) | pest or weed control at 250 g/ha ([2]; 250 g ai/ha, read-out: Morningglory, Ivy-leaved damage rating (100=total damage to plant; 0=no damage to plant)) | pest or weed control at 15.625 g/ha ([3]; 15.625 g ai/ha, read-out: Barnyard grass damage rating (100=total damage to plant; 0=no damage to plant)) | pest or weed control at 62.5 g/ha ([3]; 62.5 g ai/ha, 100=total damage to plant, 0=no damage to plant, read-out: plant damage rating, Barnyardgrass) | pest or weed control at 250 g/ha ([3]; 250 g ai/ha, read-out: Barnyardgrass damage rating (100=total damage to plant; 0=no damage to plant)) | pest or weed control at 15.625 g/ha ([4]; 15.625 g ai/ha, read-out: Velvetleaf damage rating (100=total damage to plant; 0=no damage to plant)) | pest or weed control at 62.5 g/ha ([4]; 62.5 g ai/ha, 100=total damage to plant, 0=no damage to plant, read-out: plant damage rating, Velvetleaf) | pest or weed control at 250 g/ha ([4]; 250 g ai/ha, read-out: Velvetleaf damage rating (100=total damage to plant; 0=no damage to plant)) | pest or weed control at 15.625 g/ha ([5]; 15.625 g ai/ha, read-out: Foxtail, Giant damage rating (100=total damage to plant; 0=no damage to plant)) | pest or weed control at 62.5 g/ha ([5]; 62.5 g ai/ha, 100=total damage to plant, 0=no damage to plant, read-out: plant damage rating, Foxtail, Giant) | pest or weed control at 250 g/ha ([5]; 250 g ai/ha, read-out: Foxtail, Giant damage rating (100=total damage to plant; 0=no damage to plant)) | plant injury at 15.625 g/ha (corn (Zea mays) [6]; 15.625 g ai/ha, read-out: Corn damage rating (100=total damage to plant; 0=no damage to plant)) | plant injury at 62.5 g/ha (corn (Zea mays) [6]; 62.5 g ai/ha, 100=total damage to plant, 0=no damage to plant, read-out: plant damage rating, Corn) | plant injury at 250 g/ha (corn (Zea mays) [6]; 250 g ai/ha, read-out: Corn damage rating (100=total damage to plant; 0=no damage to plant)) | pest or weed control at 15.625 g/ha ([7]; 15.625 g ai/ha, evaluated after 13 days (100=total damage to plant; 0=no damage to plant), read-out: Pigweed, Redroot damage rating) | pest or weed control at 62.5 g/ha ([7]; 62.5 g ai/ha, evaluated after 13 days, read-out: Pigweed, Redroot damage rating (100=total damage to plant; 0=no damage to plant)) | pest or weed control at 250 g/ha ([7]; 250 g ai/ha, evaluated after 13 days, read-out: damage to plant, Pigweed, Redroot (100=total damage to plant; 0=no damage to plant)) | pest or weed control at 15.625 g/ha ([8]; 15.625 g ai/ha, evaluated after 13 days (100=total damage to plant; 0=no damage to plant), read-out: Morningglory, Ivy-leaved damage rating) | pest or weed control at 62.5 g/ha ([8]; 62.5 g ai/ha, evaluated after 13 days, read-out: Morningglory, Ivy-leaved damage rating (100=total damage to plant; 0=no damage to plant)) | pest or weed control at 250 g/ha ([8]; 250 g ai/ha, evaluated after 13 days, read-out: damage to plant, Morningglory, Ivy-leaved (100=total damage to plant; 0=no damage to plant)) | pest or weed control at 15.625 g/ha ([9]; 15.625 g ai/ha, evaluated after 13 days (100=total damage to plant; 0=no damage to plant), read-out: Barnyardgrass damage rating) | pest or weed control at 62.5 g/ha ([9]; 62.5 g ai/ha, evaluated after 13 days, read-out: Barnyardgrass damage rating (100=total damage to plant; 0=no damage to plant)) | pest or weed control at 250 g/ha ([9]; 250 g ai/ha, evaluated after 13 days, read-out: damage to plant, Barnyardgrass (100=total damage to plant; 0=no damage to plant)) | pest or weed control at 15.625 g/ha ([10]; 15.625 g ai/ha, evaluated after 13 days (100=total damage to plant; 0=no damage to plant), read-out: Velvetleaf damage rating) | pest or weed control at 62.5 g/ha ([10]; 62.5 g ai/ha, evaluated after 13 days, read-out: Velvetleaf damage rating (100=total damage to plant; 0=no damage to plant)) | pest or weed control at 250 g/ha ([10]; 250 g ai/ha, evaluated after 13 days, read-out: damage to plant, Velvetleaf (100=total damage to plant; 0=no damage to plant)) | pest or weed control at 15.625 g/ha ([11]; 15.625 g ai/ha, evaluated after 13 days (100=total damage to plant; 0=no damage to plant), read-out: Foxtail, Giant damage rating) | pest or weed control at 62.5 g/ha ([11]; 62.5 g ai/ha, evaluated after 13 days, read-out: Foxtail, Giant damage rating (100=total damage to plant; 0=no damage to plant)) | pest or weed control at 250 g/ha ([11]; 250 g ai/ha, evaluated after 13 days, read-out: damage to plant, Foxtail, Giant (100=total damage to plant; 0=no damage to plant)) | plant injury at 15.625 g/ha (corn (Zea mays) [12]; 15.625 g ai/ha, evaluated after 13 days (100=total damage to plant; 0=no damage to plant), read-out: Corn damage rating) | plant injury at 62.5 g/ha (corn (Zea mays) [12]; 62.5 g ai/ha, evaluated after 13 days, read-out: Corn damage rating (100=total damage to plant; 0=no damage to plant)) | plant injury at 250 g/ha (corn (Zea mays) [12]; 250 g ai/ha, evaluated after 13 days, read-out: damage to plant, Corn (100=total damage to plant; 0=no damage to plant))
